Experimental data from US8481495B2 (TetraLogic Pharmaceuticals Corporation, priority 2009, dated 2013).

What was measured:
cIAP-1 BIR-3 = biological target: T1, cIAP-1 BIR-3 (Homo sapiens, UniProt Q13490); assay: Fluorescence polarization binding to cIAP-1 BIR-3 with labeled peptide AbuRPF-K(5-Fam)-NH2; conditions: cIAP-1 BIR-3, 40 nM BIR3, 5 nM labeled peptide, 15 min RT, pH 7.5; read-out: cIAP1, nM (binding affinity KD, as range)
T1 construct: 40 nM of the respective IAP BIR3
Experimental: (§1) The binding affinities of the compounds are reported as a KD value (μM). Briefly, various concentrations of test peptides were mixed with 5 nM of the fluorescently labeled peptide (i.e., a mutated N-terminal Smac peptide-AbuRPF-K(5-Fam)-NH2) and 40 nM of the respective IAP BIR3 for 15 min at RT in […] of 0.1M Potassium Phosphate buffer, pH 7.5 containing […] bovine g-globulin. Following incubation, the polarization values (mP) were measured on a Victor2V™ (available from PerkinElmer® Life Sciences) using a 485 nm excitation filter and a 520 nm emission filter. The reported binding affinities (KD values) are supplied as ranges (A=<0.1 μM, B=0.1 μM to 1 μM, C=>1 μM to 10 μM, D=>10 μM).

SK-OV-3 cells = assay: MTT cell growth inhibition assay in ovarian cancer cell line SK-OV-3; assay type: cell-based; conditions: Homo sapiens, 72 hrs incubation, read-out: SKOV3, nM (CC50, concentration giving 50% cell survival, as range)
Experimental: Compounds of the invention also were tested for their ability to inhibit the growth of an ovarian cancer cell line, SK-OV-3. A known assay previously used for measuring cell growth (as described in Hansen, M. B., Nielsen, S. E., and Berg, K. (1989) J. Immunol. Methods 119, 203-210 and incorporated herein by reference in its entirety) was used. Briefly, SK-OV-3 cells are seeded in 96-well plates in McCoy's medium containing 10% fetal bovine serum albumin (5,000 per well) and incubated overnight at 37° C. The next day, test compounds are added at various concentrations (0.003-10 μM) and the plates are incubated at 37° C. for an additional 72 hrs. This incubation time was considered to be optimal for measuring inhibitory effects of the different compounds tested. 50 microliters of 5 mg/mL MTT reagent is added to each well and the plates are incubated at 37° C. for another three (3) hours. At the end of the three (3) hour incubation period, 50 microliters of DMSO is added to each well to dissolve cells and the optical density (OD) of the wells is measured with a microplate reader (Victor^2 1420™, Wallac, Finland) at 535 nm. Cell survival (CS) was calculated using the following equation: CS=(OD treated well/mean OD control wells)×100%.
The CC50 (reported in the following tables), is defined as the drug concentration that results in 50% cell survival (CS), and is derived by calculating the point where the dose-response curve crosses the 50% CS point using GraphPad Prism® graphing software. The reported CC50 values are supplied as ranges (A=<0.1 μM, B=0.1 μM to 1 μM, C=>1 μM to 10 μM, D=>10 μM).

XIAP BIR-3 = biological target: T2, XIAP BIR-3 (Homo sapiens, UniProt P98170); assay: Fluorescence polarization binding to XIAP BIR-3 with labeled peptide AbuRPF-K(5-Fam)-NH2; conditions: XIAP BIR-3, 40 nM BIR3, 5 nM labeled peptide, 15 min RT, pH 7.5; read-out: XIAP, nM (binding affinity KD, as range)
T2 construct: 40 nM of the respective IAP BIR3
T2 sequence (P98170 241-356 limits assumed): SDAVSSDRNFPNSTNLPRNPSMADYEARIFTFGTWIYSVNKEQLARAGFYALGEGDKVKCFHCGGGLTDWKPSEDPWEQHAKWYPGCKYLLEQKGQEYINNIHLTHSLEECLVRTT
Experimental: as §1

T1 sequence (Q13490 253-363 limits assumed): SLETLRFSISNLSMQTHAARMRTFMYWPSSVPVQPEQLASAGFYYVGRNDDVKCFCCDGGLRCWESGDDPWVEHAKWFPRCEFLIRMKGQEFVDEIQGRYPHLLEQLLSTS

Row | Kd (cIAP-1 BIR-3) [nM] | Kd (XIAP BIR-3) [nM] | SMILES | CC50 (SK-OV-3 cells) [nM]
1 | < 100 | < 100 | CN[C@@H](C)C(=O)N[C@H](C(=O)N1CC[C@@H]2[C@H]1[C@@H](C(=O)N(C)Cc1ccccc1)CN2S(C)(=O)=O)C1CCCCC1 [Example 9, 4-[2-Cyclohexyl-2-(2-methylamino-propionylamino)-acetyl]-1-methanesulfonyl-octahydro-pyrrolo[3,2-b]pyrrole-3-carboxylic acid benzyl-methyl-amide] | 100 to 1000
2 | 100 to 1000 | 100 to 1000 | CN[C@@H](C)C(=O)N[C@H](C(=O)N1CC[C@@H]2[C@H]1[C@@H](C(=O)N[C@@H](Cc1ccccc1)C(=O)OC)CN2S(C)(=O)=O)C1CCCCC1 [Example 10, 2-({4-[2-Cyclohexyl-2-(2-methylamino-propionylamino)-acetyl]-1-methanesulfonyl-octahydro-pyrrolo[3,2-b]pyrrole-3-carbonyl}-amino)-3-phenyl-propionic acid methyl ester] | 1000 to 10000
3 | < 100 | < 100 | CN[C@@H](C)C(=O)N[C@H](C(=O)N1CC[C@@H]2[C@H]1[C@@H](C(=O)N[C@@H](C)c1ccccc1)CN2S(C)(=O)=O)C1CCCCC1 [Example 11, 4-[2-Cyclohexyl-2-(2-methylamino-propionylamino)-acetyl]-1-methanesulfonyl-octahydro-pyrrolo[3,2-b]pyrrole-3-carboxylic acid (1-phenyl-ethyl)-amide] | 100 to 1000
4 | < 100 | 100 to 1000 | CN[C@@H](C)C(=O)N[C@H](C(=O)N1CC[C@@H]2[C@H]1[C@@H](C(=O)N[C@H]1CCc3ccccc31)CN2S(C)(=O)=O)C1CCCCC1 [Example 12, 4-[2-Cyclohexyl-2-(2-methylamino-propionylamino)-acetyl]-1-methanesulfonyl-octahydro-pyrrolo[3,2-b]pyrrole-3-carboxylic acid indan-1-ylamide] | 100 to 1000
5 | < 100 | < 100 | CN[C@@H](C)C(=O)N[C@H](C(=O)N1CC[C@@H]2[C@H]1[C@@H](C(=O)N1Cc3ccccc3C1)CN2S(C)(=O)=O)C1CCCCC1 [Example 13, N-{1-Cyclohexyl-2-[6-(1,3-dihydro-isoindole-2-carbonyl)-4-methanesulfonyl-hexahydro-pyrrolo[3,2-b]pyrrol-1-yl]-2-oxo-ethyl}-2-methylamino-propionamide] | < 100
6 | < 100 | 100 to 1000 | CN[C@@H](C)C(=O)N[C@H](C(=O)N1CC[C@@H]2[C@H]1[C@@H](C(=O)N[C@@H]1CCc3ccccc31)CN2S(C)(=O)=O)C1CCCCC1 [Example 14, 4-[2-Cyclohexyl-2-(2-methylamino-propionylamino)-acetyl]-1-methanesulfonyl-octahydro-pyrrolo[3,2-b]pyrrole-3-carboxylic acid indan-1-ylamide] | < 100
7 | 100 to 1000 | 100 to 1000 | CN[C@@H](C)C(=O)N[C@H](C(=O)N1CC[C@@H]2[C@H]1[C@@H](C(=O)N1CCc3ccccc31)CN2S(C)(=O)=O)C1CCCCC1 [Example 15, N-{1-Cyclohexyl-2-[6-(2,3-dihydro-indole-1-carbonyl)-4-methanesulfonyl-hexahydro-pyrrolo[3,2-b]pyrrol-1-yl]-2-oxo-ethyl}-2-methylamino-propionamide] | < 100
8 | < 100 | < 100 | CN[C@@H](C)C(=O)N[C@H](C(=O)N1CC[C@@H]2[C@H]1[C@@H](C(=O)NCCc1ccccc1)CN2S(C)(=O)=O)C1CCCCC1 [Example 16, 4-[2-Cyclohexyl-2-(2-methylamino-propionylamino)-acetyl]-1-methanesulfonyl-octahydro-pyrrolo[3,2-b]pyrrole-3-carboxylic acid-phenethyl-amide] | 100 to 1000
9 | < 100 | < 100 | CN[C@@H](C)C(=O)N[C@H](C(=O)N1CC[C@@H]2[C@H]1[C@@H](C(=O)Nc1cccc3ccccc13)CN2S(C)(=O)=O)C1CCCCC1 [Example 17, 4-[2-Cyclohexyl-2-(2-methylamino-propionylamino)-acetyl]-1-methanesulfonyl-octahydro-pyrrolo[3,2-b]pyrrole-3-carboxylic acid naphthalen-1-ylamide] | < 100
10 | < 100 | 100 to 1000 | CN[C@@H](C)C(=O)N[C@H](C(=O)N1CC[C@@H]2[C@H]1[C@@H](C(=O)Nc1ccc3ccccc3c1)CN2S(C)(=O)=O)C1CCCCC1 [Example 18, 4-[2-Cyclohexyl-2-(2-methylamino-propionylamino)-acetyl]-1-methanesulfonyl-octahydro-pyrrolo[3,2-b]pyrrole-3-carboxylic acid naphthalen-2-ylamide] | < 100
11 | < 100 | < 100 | CN[C@@H](C)C(=O)N[C@H](C(=O)N1CC[C@@H]2[C@H]1[C@@H](C(=O)NCC1CCCCC1)CN2S(C)(=O)=O)C1CCCCC1 [Example 19, 4-[2-Cyclohexyl-2-(2-methylamino-propionylamino)-acetyl]-1-methanesulfonyl-octahydro-pyrrolo[3,2-b]pyrrole-3-carboxylic acid cyclohexylmethyl-amide] | < 100
12 | < 100 | < 100 | CN[C@@H](C)C(=O)N[C@H](C(=O)N1CC[C@@H]2[C@H]1[C@@H](C(=O)NCc1ccccc1)CN2S(C)(=O)=O)C(C)(C)C [Example 20, 4-[3,3-Dimethyl-2-(2-methylamino-propionylamino)-butyryl]-1-methanesulfonyl-octahydro-pyrrolo[3,2-b]pyrrole-3-carboxylic acid benzylamide] | < 100
13 | < 100 | < 100 | CN[C@@H](C)C(=O)N[C@H](C(=O)N1CC[C@@H]2[C@H]1[C@@H](C(=O)NCc1ccc(F)cc1)CN2S(C)(=O)=O)C(C)(C)C [Example 21, 4-[3,3-Dimethyl-2-(2-methylamino-propionylamino)-butyryl]-1-methanesulfonyl-octahydro-pyrrolo[3,2-b]pyrrole-3-carboxylic acid 4-fluoro-benzylamide] | < 100
14 | < 100 | < 100 | CN[C@@H](C)C(=O)N[C@H](C(=O)N1CC[C@@H]2[C@H]1[C@@H](C(=O)Nc1ccccc1)CN2S(C)(=O)=O)C(C)(C)C [Example 22, 4-[3,3-Dimethyl-2-(2-methylamino-propionylamino)-butyryl]-1-methanesulfonyl-octahydro-pyrrolo[3,2-b]pyrrole-3-carboxylic acid phenylamide] | < 100
15 | < 100 | < 100 | CN[C@@H](C)C(=O)N[C@H](C(=O)N1CC[C@@H]2[C@H]1[C@@H](C(=O)N[C@H]1CCCc3ccccc31)CN2S(C)(=O)=O)C(C)(C)C [Example 23, 4-[3,3-Dimethyl-2-(2-methylamino-propionylamino)-butyryl]-1-methanesulfonyl-octahydro-pyrrolo[3,2-b]pyrrole-3-carboxylic acid (1,2,3,4-tetrahydro-naphthalen-1-yl)-amide] | 100 to 1000
16 | < 100 | < 100 | CN[C@@H](C)C(=O)N[C@H](C(=O)N1CC[C@@H]2[C@H]1[C@@H](C(=O)Nc1cccc3ccccc13)CN2S(C)(=O)=O)C(C)(C)C [Example 24, 4-[3,3-Dimethyl-2-(2-methylamino-propionylamino)-butyryl]-1-methanesulfonyl-octahydro-pyrrolo[3,2-b]pyrrole-3-carboxylic acid naphthalen-1-ylamide] | < 100
17 | < 100 | < 100 | CN[C@@H](C)C(=O)N[C@H](C(=O)N1CC[C@@H]2[C@H]1[C@@H](C(=O)Nc1ccc3ccccc3c1)CN2S(C)(=O)=O)C(C)(C)C [Example 25, 4-[3,3-Dimethyl-2-(2-methylamino-propionylamino)-butyryl]-1-methanesulfonyl-octahydro-pyrrolo[3,2-b]pyrrole-3-carboxylic acid naphthalen-2-ylamide] | < 100
